The source of these data is patent publication US9187426B2, “Organic compounds” (Novartis AG, priority 2008, dated 2015).

Where a name gives a salt, the structure may show the parent alone.

For orientation: melting point means the temperature of the solid-liquid transition. `O=C(NCc1cccnc1)c1ccnc(N2CCN(Cc3ccc(OC(F)(F)F)cc3)C2=O)c1` [Example 26.16, 2-(2-Oxo-3-(4-(trifluoromethoxy)-benzyl)imidazolidin-1-yl)-N-(pyridin-3-ylmethyl)-isonicotinamide] came in with a melting point of 185 to 187 °C. In turn, `O=C(NCc1ccc(F)cc1)c1ccnc(N2CCN(Cc3ccc(F)cc3F)C2=O)c1` [Example 15.22, 2-(3-(2,4-difluorobenzyl)-2-oxoimidazolidin-1-yl)-N-(4-fluorobenzyl)isonicotinamide] displayed a melting point of 171 to 173 °C. Take `O=C(NCc1ccccc1)c1ccnc(-n2cnn(Cc3ccc(F)cc3)c2=O)c1` [Example 16, N-benzyl-2-(1-(4-fluorobenzyl)-5-oxo-1H-1,2,4-triazol-4(5H)-yl)isonicotinamide]: the melting point was in the range of 173 to 175 °C. With `O=C(NCc1ccccc1)c1ccnc(NC(=O)c2ccc(F)cc2)c1` [Example 6.14, N-benzyl-2-(4-fluorobenzamido)isonicotinamide], the melting point was in the range of 170 to 171 °C. In turn, `COc1ccc(C(=O)Nc2cc(C(=O)NCc3ccccc3)ccn2)cc1` [Example 6.5, N-benzyl-2-(4-methoxybenzamido)isonicotinamide] yielded a melting point of 165 to 166 °C. As for `O=C(NCc1cc[nH]n1)c1ccnc(N2CCN(Cc3ccc(F)cc3)C2=O)c1` [Example 14.9, N-((1H-pyrazol-3-yl)methyl)-2-(3-(4-fluorobenzyl)-2-oxoimidazolidin-1-yl)isonicotinamide], the figure is 178 to 180 °C; as for `O=C(NCc1cncs1)c1ccnc(N2CCN(Cc3ccc(OC(F)(F)F)cc3)C2=O)c1` [Example 26.14, 2-(2-Oxo-3-(4-(trifluoromethoxy)benzyl)imidazolidin-1-yl)-N-(thiazol-5-ylmethyl)-isonicotinamide], 189 to 191 °C. In the case of `Cc1ccc(CNC(=O)c2ccnc(NC(=O)c3ccccc3)c2)cc1` [Example 1.2, 2-benzamido-N-(4-methylbenzyl)isonicotinamide], the melting point fell in the range of 135 to 138 °C.

The compound `O=C(NCc1ccccc1)c1ccnc(NC(=O)c2cc(F)ccc2Cl)c1` [Example 6.9, N-benzyl-2-(2-chloro-5-fluorobenzamido)isonicotinamide] showed a melting point of 180 to 181 °C. The result for `O=C(NCc1ccccc1)c1cc[n+]([O-])c(NC(=O)c2ccccc2)c1` [Example 7, 2-benzamido-N-benzylisonicotinamide-1-N-oxide] reads 198 to 201 °C; that for `O=C(NCc1ccc(F)cc1)c1ccnc(N2CCN(Cc3ccc(F)c(F)c3)C2=O)c1` [Example 15.20, 2-(3-(3,4-difluorobenzyl)-2-oxoimidazolidin-1-yl)-N-(4-fluorobenzyl)isonicotinamide], 165 to 167 °C; that for `O=C(NCc1nccs1)c1ccnc(N2CCN(Cc3ccc(F)c(F)c3)C2=O)c1` [Example 26.25, 2-(3-(3,4-Difluorobenzyl)-2-oxoimidazolidin-1-yl)-N-(thiazol-2-ylmethyl)-isonicotinamide], 105 to 107 °C.

Regarding `O=C(NCc1ccc(C(F)(F)F)cc1)c1ccnc(NC(=O)c2ccccc2)c1` [Example 1, 2-benzamido-N-(4-(trifluoromethyl)benzyl)isonicotinamide], the melting point lay in the range of 165 to 168 °C. As to `O=C(NCc1ccc(F)cc1)c1ccnc(N2CCN(Cc3ccc(C(F)(F)F)cc3)C2=O)c1` [Example 26.2, N-(4-Fluorobenzyl)-2-(2-oxo-3-(4-(trifluoromethyl)benzyl)imidazolidin-1-yl)isonicotinamide], the melting point fell in the range of 168 to 170 °C. `NC(=O)c1ccnc(N2CCN(Cc3ccc(F)cc3)C2=O)c1` [Example 22, 2-(3-(4-fluorobenzyl)-2-oxoimidazolidin-1-yl)isonicotinamide] displayed a melting point of 206 to 208 °C. `O=C(NCc1ccccc1)c1ccnc(NC(=O)c2cccc(C(F)(F)F)c2)c1` [Example 6.15, N-benzyl-2-(3-(trifluoromethyl)benzamido)isonicotinamide] gave a melting point of 126 to 128 °C. As for `O=C(NCc1csc(C(F)(F)F)n1)c1ccnc(N2CCN(Cc3ccc(F)cc3)C2=O)c1` [Example 14.15, 2-(3-(4-fluorobenzyl)-2-oxoimidazolidin-1-yl)-N-((2-(trifluoromethyl)thiazol-4-yl)methyl)isonicotinamide], the figure is 66 to 68 °C; as for `O=C(NCc1cccnc1)c1ccnc(N2CCN(Cc3ccc(F)cc3)C2=O)c1` [Example 15.1, 2-(3-(4-fluorobenzyl)-2-oxoimidazolidin-1-yl)-N-(pyridin-3-ylmethyl)isonicotinamide], 153 to 155 °C. `O=C(NCc1ccccc1)c1ccnc(NC(=O)c2cccc3ccccc23)c1` [Example 6.7, 2-(1-naphthamido)-N-benzylisonicotinamide] came in with a melting point of 65 to 67 °C. In the case of `O=C(NCc1ccncc1)c1ccnc(N2CCN(Cc3ccc(F)cc3)C2=O)c1` [Example 15.2, 2-(3-(4-fluorobenzyl)-2-oxoimidazolidin-1-yl)-N-(pyridin-4-ylmethyl)isonicotinamide], the melting point was 205 to 207 °C. In turn, `Cc1nc(CNC(=O)c2ccnc(N3CCN(Cc4ccc(F)cc4)C3=O)c2)no1` [Example 26.7, 2-(3-(4-Fluorobenzyl)-2-oxoimidazolidin-1-yl)-N-((5-methyl-1,2,4-oxadiazol-3-yl)methyl)-isonicotinamide] came in with a melting point of 163 to 165 °C. In the case of `O=C(NCc1ccccc1)c1ccnc(N2CCN(Cc3ccncc3)C2=O)c1` [Example 15.19, N-benzyl-2-(2-oxo-3-(pyridin-4-ylmethyl)imidazolidin-1-yl)isonicotinamide], the melting point was in the range of 154 to 156 °C. In turn, `O=C(NCc1ccccc1)c1ccnc(N2CCN(Cc3ccc(F)cc3)C2=O)c1` [Example 15, N-benzyl-2-(3-(4-fluorobenzyl)-2-oxoimidazolidin-1-yl)isonicotinamide] gave a melting point of 167 to 169 °C. As for `O=C(Nc1cc(-c2nnc(-c3ccccc3)o2)ccn1)c1ccccc1` [Example 11, N-(4-(5-phenyl-1,3,4-oxadiazol-2-yl)pyridin-2-yl)benzamide], the figure is 151 to 155 °C.

`O=C(NCc1cc(Br)no1)c1ccnc(N2CCN(Cc3ccc(F)cc3)C2=O)c1` [Example 26.9, N-((3-Bromoisoxazol-5-yl)methyl)-2-(3-(4-fluorobenzyl)-2-oxoimidazolidin-1-yl)isonicotinamide] displayed a melting point of 178 to 180 °C. Compound `O=C(NCc1nccs1)c1ccnc(-n2cnn(Cc3ccc(F)cc3)c2=O)c1` [Example 26.21, 2-(1-(4-Fluorobenzyl)-5-oxo-1H-1,2,4-triazol-4(5H)-yl)-N-(thiazol-2-ylmethyl)-isonicotinamide] yielded a melting point of 170 to 172 °C. Compound `CNC(=O)c1ccnc(N2CCN(Cc3ccc(F)cc3)C2=O)c1` [Example 13, 2-(3-(4-fluorobenzyl)-2-oxoimidazolidin-1-yl)-N-methylisonicotinamide] registered a melting point of 118 to 120 °C. As for `O=C(NCc1ccccn1)c1ccnc(N2CCN(Cc3ccc(F)cc3)C2=O)c1` (as salt: hydrochloride) [Example 15.3, 2-(3-(4-fluorobenzyl)-2-oxoimidazolidin-1-yl)-N-(pyridin-2-ylmethyl)isonicotinamide dihydrochloride], the figure is 141 to 143 °C.
